Results on one compound are retold here after ChEMBL document CHEMBL1151836, “Citronamides A and B, tetrapeptides from the Australian sponge Citronia astra” (J Nat Prod, 2009).

Each structure is given as a SMILES string. Converted amounts (≈) assume the structure as drawn. The source made the active and inactive calls.

The MIC is the smallest concentration in the dilution series that meets the test's criterion for growth inhibition. Low values mean a more susceptible organism, high ones a less susceptible organism.

Data set [1] concerns Plasmodium falciparum. In words: Antimalarial activity against chloroquine-resistant Plasmodium falciparum Dd2 at 120 uM after 72 hrs by DAPI stain. The class given is functional.
Data set [2] has as its system Escherichia coli. Description: Antibacterial activity against Escherichia coli K-12 after 19 to 20 hrs by agar hole punch diffusion assay. The class given is functional.
The subject of data set [3] is HeLa. Description: Cytotoxicity against human HeLa cells upto 120 uM after 72 hrs by alamar blue assay. The class given is functional, cell-based. Background: Resazurin is reduced to fluorescent resorufin, in cell work by metabolically active cells.
Data set [4] relates to HEK293. In words: Cytotoxicity against HEK293 cells upto 120 uM after 72 hrs by alamar blue assay. The class given is cell-based. The settings on record: human, hek293, 72 h.
For data set [5], the system named is Saccharomyces cerevisiae. Description: Antibacterial activity against Saccharomyces cerevisiae after 19 to 20 hrs by agar hole punch diffusion assay. The data set is classed as functional.
The test system of data set [6] is Trypanosoma brucei. Description: Antitrypanosomal activity against Trypanosoma brucei BS427 upto 120 uM after 48 hrs by alamar blue assay. The data set is classed as functional, organism-based.
For data set [7], the system named is Staphylococcus. Description: Antibacterial activity against Staphylococcus albus epidermis strain at 800 ug/mL after 19 to 20 hrs by agar hole punch diffusion assay. The class given is functional, organism-based.

As to `CC[C@@H](C)[C@@H](NC(=O)[C@@H](NC(=O)[C@H](NC(=O)CCCCC(N)Cc1ccc(OC)cc1)[C@@H](O[C@@H]1O[C@@H](C(=O)O)[C@@H](O)[C@H](OC(N)=O)[C@H]1O)c1c[nH]c(=O)[nH]1)[C@@H](C)CC)C(=O)O` (some centres not stated) [CITRONAMIDE A], the Activity was 24% in data set [1] and “Not Active” in data set [4]. Also, the results for the MIC in data set [2] and in data set [5] were 80 µg/mL (≈ 92.4 µM) and 8 µg/mL (≈ 9.24 µM), respectively. In addition, the outcome in data set [3], in data set [6] and in data set [7] was inactive.
